According to ChEMBL document CHEMBL4699568, “Crystal structure of Leishmania mexicana cysteine protease B in complex with a high-affinity azadipeptide nitrile inhibitor” (Bioorg Med Chem, 2020):

What was measured:
Procathepsin L [1] = target: T1, Procathepsin L (Homo sapiens, UniProt P07711); assay: Inhibition of human cathepsin L using Z-Phe-Arg-7-amido-4-methylcoumarin as substrate preincubated for 2 mins followed by substrate addition by fluorimetric assay
[2] = Inhibition of Leishmania mexicana CPB delta CTE mutant using Z-Phe-Arg-7-amido-4-methylcoumarin as substrate preincubated for 2 mins followed by substrate addition by fluorimetric assay
Cruzipain = Cruzipain (Trypanosoma cruzi, UniProt P25779); assay: Inhibition of recombinant Trypanosoma cruzi cruzain using Z-Phe-Arg-7-amido-4-methylcoumarin as substrate preincubated for 2 mins followed by substrate addition by fluorimetric assay
Sequence of Cruzipain (P25779 whole entry): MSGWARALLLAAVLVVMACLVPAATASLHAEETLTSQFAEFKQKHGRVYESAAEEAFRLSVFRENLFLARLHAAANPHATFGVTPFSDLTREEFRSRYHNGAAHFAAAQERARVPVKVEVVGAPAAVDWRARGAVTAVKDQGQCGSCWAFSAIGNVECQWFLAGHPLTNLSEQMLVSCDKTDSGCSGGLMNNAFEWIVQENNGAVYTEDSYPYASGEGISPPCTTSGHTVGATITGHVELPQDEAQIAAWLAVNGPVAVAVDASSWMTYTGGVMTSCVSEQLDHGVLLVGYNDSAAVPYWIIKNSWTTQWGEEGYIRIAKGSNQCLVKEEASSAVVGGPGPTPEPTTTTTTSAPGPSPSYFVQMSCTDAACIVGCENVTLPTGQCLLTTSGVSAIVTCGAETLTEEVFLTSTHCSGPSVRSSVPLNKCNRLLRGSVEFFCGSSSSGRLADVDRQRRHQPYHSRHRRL

Leishmania mexicana [3] = assay: Inhibition of Leishmania mexicana CPB delta CTE mutant assessed as on rate constant
Leishmania mexicana [4] = assay: Inhibition of Leishmania mexicana CPB delta CTE mutant assessed as off rate constant
[5] = target: Cruzipain (Trypanosoma cruzi) (UniProt P25779); assay: Inhibition of recombinant Trypanosoma cruzi cruzain assessed as off rate constant
Sequence of Cruzipain (Trypanosoma cruzi) (P25779 123-467 limits assumed): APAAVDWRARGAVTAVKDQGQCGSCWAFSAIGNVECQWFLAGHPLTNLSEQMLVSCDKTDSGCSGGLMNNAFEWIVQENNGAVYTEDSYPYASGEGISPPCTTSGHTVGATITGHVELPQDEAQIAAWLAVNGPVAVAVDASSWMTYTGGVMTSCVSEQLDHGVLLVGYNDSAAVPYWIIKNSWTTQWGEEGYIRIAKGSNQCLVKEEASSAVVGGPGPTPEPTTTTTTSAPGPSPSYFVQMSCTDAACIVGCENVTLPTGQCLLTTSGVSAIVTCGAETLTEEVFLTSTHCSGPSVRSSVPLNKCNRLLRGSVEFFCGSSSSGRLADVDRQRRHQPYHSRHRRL

[6] = target: Cruzipain (Trypanosoma cruzi) (UniProt P25779); assay: Inhibition of recombinant Trypanosoma cruzi cruzain assessed as on rate constant
[7] = target: cathepsin L (Procathepsin L) (Homo sapiens, UniProt P07711); assay: Inhibition of human cathepsin L assessed as off rate constant; conditions: human cathepsin L enzyme, read-out: K
Sequence of cathepsin L (Procathepsin L) (P07711 whole entry): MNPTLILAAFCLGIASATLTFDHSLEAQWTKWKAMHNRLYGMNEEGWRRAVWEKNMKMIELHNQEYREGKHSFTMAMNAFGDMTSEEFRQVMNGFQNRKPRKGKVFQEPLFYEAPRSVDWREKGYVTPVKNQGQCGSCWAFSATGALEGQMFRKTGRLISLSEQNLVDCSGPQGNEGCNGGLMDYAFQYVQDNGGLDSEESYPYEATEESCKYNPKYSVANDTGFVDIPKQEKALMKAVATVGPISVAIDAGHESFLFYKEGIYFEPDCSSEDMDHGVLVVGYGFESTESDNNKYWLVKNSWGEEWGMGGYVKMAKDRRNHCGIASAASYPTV

Procathepsin L [8] = target: T1, Procathepsin L; assay: Inhibition of human cathepsin L assessed as on rate constant

T1 sequence (P07711 whole entry): as above

Compound	Ki (Procathepsin L [1]) [nM]	pKi [2]	Ki (Cruzipain) [nM]	further results
CC(C)(C)OC(=O)N[C@@H](Cc1cccc(Cl)c1)C(=O)NCC#N	251	5.2	–	–
N#CCNC(=O)[C@H](Cc1ccccc1)NC(=O)c1ccccc1	126	6.6	–	–
N#CCNC(=O)[C@H](Cc1ccccc1)NC(=O)OCc1ccccc1	126	6.6	–	–
CC(C)C[C@H](NC(=O)c1cc(C(C)(C)C)nn1C)C(=O)NCC#N	25.1	7.6	–	–
N#CCNC(=O)[C@H](Cc1ccccc1)NC(=O)c1ccco1	501	6.3	–	–
N#CCNC(=O)[C@H](Cc1ccc(OC(=O)c2ccccc2)cc1)NC(=O)c1ccccc1	251	6.9	–	–
CC(C)C[C@H](NC(=O)OC(C)(C)C)C(=O)NCC#N	2510	5.8	–	–
N#CCNC(=O)[C@@H](Cc1ccccc1)NC(=O)c1ccccc1	1580	5.9	6310	–
Cn1nc(C(C)(C)C)cc1C(=O)N[C@@H](Cc1cccc(Cl)c1)C(=O)NCC#N	1.26	6.6	–	–
CC(C)C[C@H](NC(=O)Cc1ccccc1)C(=O)NC1(C#N)CC1	63.1	7.2	39.8	–
N#CCNC(=O)[C@H](Cc1ccc(O)cc1)NC(=O)c1ccccc1	79.4	5.7	–	–
CC(C)C[C@H](NC(=O)c1cc(C(C)(C)C)nn1C)C(=O)NC1(C#N)CC1	12.6	8.3	–	–
Cn1nc(C(F)(F)F)cc1C(=O)N[C@@H](Cc1ccccc1)C(=O)NCC#N	25.1	7	501	–
CC(C)C[C@H](NC(=O)C(C)(C)c1ccccc1)C(=O)NC1(C#N)CC1	39.8	6.4	158	–
N#CCNC(=O)[C@H](Cc1ccccc1)NC(=O)c1cncc(Br)c1	10	6.9	158	–
N#CC1(NC(=O)C2(NC(=O)c3ccccc3)CCCC2)CC1	3980	5.2	12600	–
CC(C)C[C@H](NC(=O)c1ccccc1)C(=O)NC1(C#N)CC1	–	6.8	–	–
CC[C@@H](C)[C@H](NC(=O)c1ccccc1)C(=O)NC1(C#N)CC1	3160	5.5	25100	–

Compound	Ki (Procathepsin L [1]) [nM]	pKi [2]	Ki (Cruzipain) [nM]	further results
N#CCNC(=O)C1(NC(=O)c2ccccc2)CCCC1	10000	4.3	–	–
Cn1nc(C(C)(C)C)cc1C(=O)N[C@@H](Cc1ccccc1)C(=O)NCC#N	3.98	7.4	–	–
N#CCNC(=O)[C@H](Cc1c[nH]c2ccccc12)NC(=O)c1ccccc1	50.1	6.1	–	–
CC(C)(C)OC(=O)N[C@@H](Cc1ccccc1)C(=O)NCC#N	–	5.8	2510	–
CC(C)C[C@H](NC(=O)OC(C)(C)C)C(=O)NC1(C#N)CC1	631	6.3	–	–
CC(C)(C#N)NC(=O)[C@H](Cc1ccccc1)NC(=O)c1ccccc1	631	5.7	–	–
N#CCNC(=O)[C@H](Cc1ccccc1)NC(=O)c1cnccn1	1000	6.2	6310	–
N#CCNC(=O)[C@H](Cc1ccccc1)NC(=O)c1cccs1	501	6.4	–	–
CC(C)C[C@H](NC(=O)C1(c2ccccc2)CC1)C(=O)NC1(C#N)CC1	5.01	7.2	25.1	–
N#CC1(NC(=O)[C@H](Cc2ccccc2)NC(=O)c2ccccc2)CC1	50.1	6.8	–	–
CC(C)C[C@H](NC(=O)C1(c2ccccc2)CCC1)C(=O)NC1(C#N)CC1	5.01	7.6	20	–
N#CCNC(=O)[C@H](Cc1ccccc1)NC(=O)c1cncnc1	1000	6.2	5010	–
CC(C)C[C@H](NC(=O)C(F)(F)c1ccccc1)C(=O)NC1(C#N)CC1	31.6	6.8	63.1	–
Cn1nc(C(C)(C)C)cc1C(=O)N[C@@H](Cc1ccccc1)C(=O)NC1(C#N)CC1	5.01	7.3	–	–
CC(C)C[C@H](NC(=O)c1cc(C(C)(C)C)nn1C)C(=O)N(C)N(C)C#N	0.501	9.7	–	K (Leishmania mexicana [3]): 0.22 10^-6/M/s; K (Leishmania mexicana [4]): 0.04 10^-6/s
N#CCNC(=O)[C@H](Cc1ccccc1)NC(=O)c1c[nH]c(=O)[nH]c1=O	1000	6.5	1260	–
CN(C#N)N(C)C(=O)[C@H](Cc1ccccc1)NC(=O)c1cc(C(C)(C)C)nn1C	0.126	9.7	–	K [5]: 12 10^-6/s; K (Leishmania mexicana [3]): 1 10^-6/M/s; K (Leishmania mexicana [4]): 0.2 10^-6/s; K [6]: 7.7e+06 M⁻¹ s⁻¹; koff [7]: 8e-08 s⁻¹; K (Procathepsin L [8]): 700000 M⁻¹ s⁻¹
N#CCNC(=O)[C@H](Cc1cccc(Cl)c1)NC(=O)c1ccccc1	20	5.2	–	–
